In patent EP0254663B1, “2-(2-Phosphonoxyphenyl-Carbonyloxy)benzoic acid, salts thereof, a process for the preparation thereof” (SUEROS, ANTIBIOTICOS Y LABORATORIO DE VACUNOTERAPIA, …, priority 1986, dated 1988):

Columns and labels:
[1] = test system: motor activity inhibition produced by inflammatory pain; assay: correction of motor activity inhibition produced by inflammatory pain; type: in vivo; details: 200 mg/kg
Description: PSS and ASA afford a 90 % correction of the motor activity inhibition produced by inflammatory pain at 200 mg/kg.

[2] = test system: carrageenin induced rat paw oedema; assay: carrageenin induced rat paw oedema; type: in vivo; details: 200 mg/kg
Description: PSS has a 49 % anti-inflammatory activity at 200 mg/kg on carrageenin induced rat paw oedema.

adjuvant arthritis = adjuvant arthritis inhibition; type: in vivo; details: 100-200 mg/kg/day, for 14 days
Description: At doses ranging from 100-200 mg/kg/day, for 14 days, PSS inhibits adjuvant arthritis by 40 - 50 %. At equal dose levels, inhibition by ASA is 0 - 39 %.

[3] = test system: pain induced in mouse by i.p. injection of acetic acid; assay: pain induced in mouse by i.p. injection of acetic acid; type: in vivo; details: i.p. acetic acid 30 minutes after oral administration
Description: The inhibitory dose30 levels (ID-30) for pain induced in mouse by i.p. injection of acetic acid 30 minutes after oral administration were: 46.3, 98.15, 40 and 129.6 for PSS, PS (phosphosal), ASA and SS, respectively.

[4] = test system: serum reducing activity (SH group levels); assay: correction of depressed serum reducing activity (SH group levels) in adjuvant arthritis; type: in vivo; details: 200 mg/kg/day
Description: In adjuvant arthritis, there is observed a depression of the serum reducing activity (SH group levels). PSS affords a 100 % correction at 200 mg/kg/day, while at equal dose levels ASA only affords a 60 % correction.

acute oral toxicity = details: in vivo, read-out: Acute toxicity (LDso)
[5] = test system: death by respiratory distress caused by i.v. injection of arachidonic acid; assay: protection from death by respiratory distress caused by i.v. arachidonic acid; type: in vivo
Description: ASA provides 72 % protection at 50 mg/kg.

ulcerogenic activity = details: in vivo
Excerpt: The ulcerogenic activity of PSS (ulcerogenic index - 3.16) is lower than that of ASA (UI = 10.54) or indo- methacin (Ul - 25.28).

[6] = gastrointestinal hemorrhages, blood in faeces (radioisotope method); type: in vivo; details: 400 mg/kg, faeces excreted during the following 4 days
[7] = salicylic acid levels after continued administration for 14 days; type: in vivo; details: continued administration at equal dose levels for 14 days
beer yeast induced fever = beer yeast induced fever in the rat; type: in vivo

Structure (SMILES)	correction of the motor activity inhibition produced by inflammatory pain [1] [%]	anti-inflammatory activity [2] [%]	inhibition of adjuvant arthritis (adjuvant arthritis)	inhibitory dose30 levels (ID-30) [3]	correction of depression of the serum reducing activity (SH group levels) [4] [%]	LD50 (acute oral toxicity) [mg/kg]	protection from death by respiratory distress ([5]; 50 mg/kg) [%]	ulcerogenic index (ulcerogenic activity)	Gastrointestinal hemorrhages, measured as µl blood in faeces [6]	salicylic acid levels [7]	antipyretic activity (beer yeast induced fever)	protection from death by respiratory distress ([5]; 100 mg/kg)
CC(=O)Oc1ccccc1C(=O)O [ASA, acetyl salycilic acid]	90	61	0 - 39%	40	60	1100	72	10.54	–	–	–	–
O=C(O)c1ccccc1OC(=O)c1ccccc1OP(=O)(O)O [PSS, 2-(2-phosphonoxyphenylcarbonyloxy) benzoic acid]	90	49	40 - 50%	46.3	100	1590	–	3.16	significantly lower than those caused by ASA	much higher salicylic acid levels for PSS than for ASA	superior to ASA and inferior to paracetamol	does not protect
O=C(O)c1ccccc1OP(=O)(O)O [PS, salicylic acid phosphonate]	65	–	–	98.15	–	–	–	–	–	–	–	–
O=C(Oc1ccccc1C(=O)O)c1ccccc1O [SS, 2-(2-hydroxyphenylcarbonyloxy) benzoic acid]	32.6	24	–	129.6	–	–	–	–	–	–	–	–
COc1ccc2c(c1)c(CC(=O)O)c(C)n2C(=O)c1ccc(Cl)cc1 [indo- methacin]	–	–	–	–	–	–	–	25.28	–	–	–	–
